Read-outs that look alike come from different tables or passages of the source.
Columns and labels:
male VICs [1] = assay: percent αSMA GMI reduction by immunofluorescent staining, male VICs on TCPS; format: cell-based, pig; settings: for reduction in αSMA GMI, initial screen: male VICs on TCPS, dosing range 10^-7 to 10^3 μM; for Percent αSMA reduction, Average: male VICs, single drug at L2 dose, n = 3 wells
Protocol: (§1) VICs were collected by aspirating off spent media, washing with PBS (Sigma-Aldrich) for 1 min, then incubating with 1× trypsin (Life Technologies) for 3 min. Trypsin was neutralized with an equal volume of 15% FBS growth media and centrifuged for 5 min at 0.2g. The media solution was then aspirated, and VICs were resuspended with 1 ml of 1% FBS media. VICs were counted with an automated hemocytometer to calculate the volume of cell solution to add to each well to seed at 6400 cells per well (20,000 cells/cm^2) for TCPS and hydrogel experiments. […] For each inhibitor, the nonlinear regression tool in Prism was used to estimate the response against the agonist by fitting the top, bottom, EC50/CC50, and hillslope to each dataset.

male VICs [2] = system: male VICs
Protocol: (§2) After culture on hydrogels or TCPS, the spent drug-containing media were removed, and VICs were immersed in a 4% paraformaldehyde solution in PBS for 20 min and then permeabilized for 1 hour with 0.1% Triton X-100 (Thermo Fisher Scientific) in PBS. Cells were then blocked with 5% bovine serum albumin in PBS for 1 hour at room temperature or over the weekend at 4°C. […] Last, VICs were washed once with PBS and then stored in PBS at 4°C until imaging. Gel samples were imaged in situ using a Nikon Eclipse Ti2-E and analyzed using an automated MATLAB code to quantify the αSMA gradient mean intensities and caspase-3 intensities normalized to cell mask for each cell. A minimum of 100 cells were used per gel with multiple gels used per condition.
(§3) Percent cytotoxicity was determined by designating each cell as alive or dead using caspase-3 intensity normalized to cell mask intensity, which was thresholded using a positive and negative control for cell death [10 nM staurosporine (Cell Signaling Technologies) or 1% FBS media]. The bottom value for every curve fit was set to 0, and the top value was constrained to a maximum of 100 to indicate the maximum possible effect of the drug. […] Absolute EC and CC values for % αSMA reduction and percent cytotoxicity were quantified using the top, bottom, EC50/CC50, and hillslope values estimated from the curve fits generated in GraphPad Prism (GraphPad Software Inc).

female VICs [3] = system: female VICs
Protocol: as §2, §3

female VICs [4] = assay: percent αSMA GMI reduction, female VICs on soft hydrogels; format: cell-based, pig; settings: single drug at L2 dose, n = 3 gels
From the text: (§4) Last, we tested the ability of […]-designed combinations to prevent myofibroblast activation in VICs cultured on other substrates beyond stiff hydrogels. […] Six male-optimized combinations were effective in preventing male VIC myofibroblast activation (Fig. 7K). […] Single-drug monotherapies used in the top male and female drug combinations were confirmed to have a minimal effect on male and female VIC αSMA GMI on soft hydrogels (table S14). […] After aspirating off the spent media, VICs were resuspended in 5 ml of fresh 15% FBS media and seeded on T25 Falcon tissue culture-treated flasks (Thermo Fisher Scientific). […] VICs were collected by aspirating off spent media, washing with PBS (Sigma-Aldrich) for 1 min, then incubating with 1× trypsin (Life Technologies) for 3 min. Trypsin was neutralized with an equal volume of 15% FBS growth media and centrifuged for 5 min at 0.2g. The media solution was then aspirated, and VICs were resuspended with 1 ml of 1% FBS media. VICs were counted with an automated hemocytometer to calculate the volume of cell solution to add to each well to seed at 6400 cells per well (20,000 cells/cm^2) for TCPS and hydrogel experiments. […] For each inhibitor, the nonlinear regression tool in Prism was used to estimate the response against the agonist by fitting the top, bottom, EC50/CC50, and hillslope to each dataset.

male VICs [5] = assay: percent αSMA GMI reduction, male VICs on stiff hydrogels; format: cell-based, pig; settings: for EC1 / EC2 / Percent αSMA reduction, Average: male VICs; for EC1 / EC2: from dose response curves; for Percent αSMA reduction, Average: n = 3-4 gels
Protocol: (§5) Glass-bottom 96-well plates (Cellvis) were placed in an autoclave jar with a scintillation vial containing 100 μl of mercaptopropyltrimethoxysilane (MPTS; Sigma-Aldrich). The autoclave jar was then lightly sealed and placed inside an oven at 60°C for a minimum of 6 hours. The autoclave jar was opened in a chemical fume hood, and the vapor-deposited well plate was stored for up to 2 hours until ready for use. Eight-arm 20-kDa PEG-norbornene (PEG-Nb) was formed as outlined previously ([76]). A 7% (w/v) PEG-Nb hydrogel precursor solution was formed by combining phosphate-buffered saline (PBS), 20-kDa PEG-Nb at a 0.98:1 thiol-to-ene ratio, 5-kDa PEG-dithiol (Jenkem), CRGDS cell binding motif (Bachem), and lithium phenyl-2,4,6-trimethyl-benzoylphosphinate (Thermo Fisher Scientific). An EPMotion 5073l automated liquid handling system (Eppendorf) was used to pipet 7 μl of the hydrogel precursor solution into the center of each well of the vapor-deposited 96-well glass-bottom plate. The well plate with the hydrogel precursor solution was then stamped using a custom 96-well plate stamp, inverted, and cured under ultraviolet light at 10 mW/cm^2 for 3 min to induce gelation. The stamp was carefully removed by hand, and the newly formed gels were sterilized with a solution of 5% isopropyl alcohol (Thermo Fisher Scientific) in PBS for 20 min. Gels were then washed twice with PBS and stored in VIC media composed of Media199 (Life Technologies), 1% fetal bovine serum (FBS, Life Technologies), amphotericin B (1 μg/ml; Thermo Fisher Scientific), penicillin (50 U/ml; Sigma-Aldrich), and streptomycin (50 μg/ml; Sigma-Aldrich). Last, the hydrogels were placed in an incubator at 37°C with 5% carbon dioxide for up to 24 hours until experimental use.
(§6) Media changes were performed every 24 to 48 hours until cells reached ~80% confluency. […] The media solution was then aspirated, and VICs were resuspended with 1 ml of 1% FBS media. VICs were counted with an automated hemocytometer to calculate the volume of cell solution to add to each well to seed at 6400 cells per well (20,000 cells/cm^2) for TCPS and hydrogel experiments. For all experiments, VICs were seeded with 1% FBS media containing the specified drug doses and incubated at 37°C with 5% carbon dioxide with media changes every 48 to 72 hours if needed.
(§7) Drug stock solutions were discarded after two thaw cycles or after 10 months of storage. For all experiments, drug dilutions were calculated and added to VIC media to ensure that total DMSO levels remained below 1% for cytotoxicity and αSMA reduction curve fitting experiments and below 0.3% for drug combination experiments.
as §2
(§8) Curve fitting for VIC percent αSMA reduction and cytotoxicity was performed using GraphPad Prism 10 (GraphPad Software Inc). For each inhibitor, the nonlinear regression tool in Prism was used to estimate the response against the agonist by fitting the top, bottom, EC50/CC50, and hillslope to each dataset. After 2 days of culture, the percent αSMA reduction was calculated using the average αSMA gradient mean intensities of the control relative to the drug condition using Eq. 1 %αSMA reduction=100×(Control−Drug Condition/Control) (1)

male VICs [6] = assay: percent αSMA GMI reduction, male VICs on soft hydrogels; format: cell-based, pig; settings: single drug at L2 dose, n = 3 gels
From the text: as §4

female VICs [7] = assay: percent αSMA GMI reduction, female VICs on stiff hydrogels; format: cell-based, pig; settings: for EC1 / EC2: from dose response curves; for Percent αSMA reduction, Average: n = 3-4 gels
Protocol: as §5, §6, §7, §2, §8

female VICs [8] = assay: percent αSMA GMI reduction by immunofluorescent staining, female VICs on TCPS; format: cell-based, pig; settings: for reduction in αSMA GMI, initial screen: female VICs on TCPS, dosing range 10^-7 to 10^3 μM; for Percent αSMA reduction, Average: female VICs, TCPS, single drug at L2 dose, n = 3 wells
Protocol: as §1

[9] = male VICs, stiff hydrogels, from dose response curves
[10] = female VICs, stiff hydrogels, from dose response curves

SMILES	reduction in αSMA GMI, initial screen (male VICs [1]) [%]	Percent αSMA reduction, Average (male VICs [1]; TCPS) [%]	Percent αSMA reduction, Average (female VICs [4]) [%]	EC1 (male VICs [5]) [µM]	EC2 (male VICs [5]) [µM]	Percent αSMA reduction, Average (male VICs [5]; single drug at level 1 dose) [%]	Percent αSMA reduction, Average (male VICs [5]; single drug at level 2 dose) [%]	Percent αSMA reduction, Average (male VICs [6]) [%]	EC1 (female VICs [7]) [µM]	EC2 (female VICs [7]) [µM]	Percent αSMA reduction, Average (female VICs [7]; single drug at level 1 dose) [%]	Percent αSMA reduction, Average (female VICs [7]; single drug at level 2 dose) [%]	reduction in αSMA GMI, initial screen (female VICs [8]) [%]	Percent αSMA reduction, Average (female VICs [8]) [%]	further results
CCCCc1nc(Cl)c(CO)n1Cc1ccc(-c2ccccc2-c2nn[nH]n2)cc1 [Losartan]	> 25	-1.33	2.73	18.7	32.9	5.58	0.99	0.81	154	219	7.00	2.37	> 25	1.39	sex difference in efficacy (male versus female EC20) (male VICs [1]; TCPS, unpaired two-tailed t test, P < 0.05): significantly more effective in male VICs relative to female VICs; CC1 (male VICs [2]; male, pig): 378 µM; CC2 (male VICs [2]; male, pig): 470 µM; CC25 (percent cytotoxicity) (male VICs [2]; male, pig): 1,123 uM; CC1 (female VICs [3]; female, pig): 11.1 µM; CC2 (female VICs [3]; female, pig): 27 µM; CC25 (percent cytotoxicity) (female VICs [3]; female, pig): 927 µM; sex difference in efficacy (male versus female EC20) (male VICs [5]; unpaired two-tailed t test, P < 0.05): reducing αSMA GMI more in male VICs relative to female VICs
Cc1cncc2cccc(S(=O)(=O)N3CCCNC[C@@H]3C)c12 [Combination H1152]	> 25	-0.09	3.37	1.96	2.82	-5.03	0.66	-5.04	0.0765	0.198	8.04	12.39	> 25	2.30	CC25 (percent cytotoxicity) (male VICs [2]; male VICs on stiff gels, n = 3 gels): 6.27 µM; CC1 (male VICs [2]; [9]): 0.162 µM; CC2 (male VICs [2]; [9]): 0.28 µM; CC25 (percent cytotoxicity) (female VICs [3]; female VICs on stiff gels, n = 3 gels): 72.6 µM; CC1 (female VICs [3]; [10]): 0.26 µM; CC2 (female VICs [3]; [10]): 0.806 µM

From PMC12143354, “Determining sex differences in aortic valve myofibroblast responses to drug combinations identified using a digital medicine platform” (Science Advances, 2025)
